The nature of data set [1]: Estimation of plasma half-life. The following applies: rat, typically determined following intravenous administration, semilogarithmic plot, read-out: t½ (half life in plasma) (converted). The data set is classed as in vivo. The source says:
Estimation of Plasma Half-Life
The plasma half-life is the time taken for the concentration of compound in the plasma to decline to half of its original value. This is typically determined following intravenous administration of the test compound, followed by measurement of the compound concentrations in plasma samples as described above. The plasma half-life is estimated from a semilogarithmic plot, plotting the log of the plasma concentration (lnCp) against sample time (t, linear). The apparent first-order elimination rate constant, k, is equal to the slope of the line, and the elimination half-life (t1/2) is […] (Gibaldi, M and Perrier, D, 1975 Pharmacokinetics, Marcel Dekker, New York): [formula]

Data set [2] is described as follows: Plasma levels following oral administration to rats. Type of data set: in vivo. To be noted: rat, oral gavage, normalised dose of 1 mg of compound per kilogram of rat body weight. How it is done:
Measurement of Plasma Levels and Plasma Protein Binding Following Oral Administration to Rats
Planetary Milled compounds [15 mins, 500 rpm, 5 Zirconium Balls, in a Puluerisette 7 Mill (Glen Creston Ltd, Stanmore, Middlesex, UK)] were suspended in 0.5% HPMC Tween and dosed to High Fat Fed (Research Diets, D12451, ad lib feeding 14 days) Female Alderley Park Zucker or Alderley Park Wistar rats at rate of 5 mls/kg, at doses between 0.3 and 10 mg/kg by oral gavage.
Samples of plasma were obtained either by conscious blood sampling or terminal blood sampling as follows:
Conscious blood sampling (for compound level or blood chemistry)—Intravenous blood samples were taken from tail vein using 600 μL Starstedt Multivette (EDTA) and 22 G needle at the required time point. […]
The reconstituted samples were then analysed using high performance liquid chromatography with tandem mass spectrometry detection (HPLC-MS-MS)”. […]
The concentration of test samples was determined from the ratio of the peak height of the test sample to the peak height of the internal standard. The concentration of the test sample was calculated with reference to a standard curve relating the ratio to the concentration prepared by using known concentrations of test sample added to samples of rat plasma using (3-isopropoxy-5-benzyoxy-benzoyl)amino pyridine 3-carboxylic acid as an internal standard, treated as described above.

Data set [3] has as its target T1, glucokinase (GLK) (Homo sapiens, UniProt P35557).
T1 construct: 6-His (N); made in house; host or cells: E. coli BL21 (vector pTB375NBSE)
T1 sequence (P35557 1-466 isoform P35557-2): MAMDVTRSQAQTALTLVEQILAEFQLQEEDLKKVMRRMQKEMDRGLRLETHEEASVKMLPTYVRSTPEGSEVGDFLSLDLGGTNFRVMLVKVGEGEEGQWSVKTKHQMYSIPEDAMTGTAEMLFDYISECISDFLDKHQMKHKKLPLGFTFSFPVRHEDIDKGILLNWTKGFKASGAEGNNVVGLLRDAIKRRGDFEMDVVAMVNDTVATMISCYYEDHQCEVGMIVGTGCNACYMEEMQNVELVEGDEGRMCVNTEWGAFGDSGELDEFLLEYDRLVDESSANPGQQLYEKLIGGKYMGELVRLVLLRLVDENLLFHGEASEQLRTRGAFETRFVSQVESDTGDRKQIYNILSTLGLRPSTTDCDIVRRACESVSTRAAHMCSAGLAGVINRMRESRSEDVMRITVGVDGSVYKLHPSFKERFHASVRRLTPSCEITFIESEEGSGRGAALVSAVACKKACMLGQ
Nature of the data set: Enzymatic activity of GLK (G-6-P dehydrogenase, NADP/NADPH coupled assay), activation by compounds. The following applies: read-out: EC50 (activating activity for glucokinase). Type of data set: biochemical. As to the method:
(1) Enzymatic activity of GLK may be measured by incubating GLK, ATP and glucose. The rate of product formation may be determined by coupling the assay to a G-6-P dehydrogenase, NADP/NADPH system and measuring the linear increase in optical density at 340 nm (atschinsky et al 1993). Activation of GLK by compounds can be assessed using this assay in the presence or absence of GLKRP (GLK regulatory protein) as described in Brocklehurst et al (Diabetes 2004, 53, 535-541).
GLK was expressed from the vector pTB375NBSE in E.coli BL21 cells, producing a recombinant protein containing a 6-His tag immediately adjacent to the N-terminal methionine. Alternatively, another suitable vector is pET21(+)DNA, Novagen, Cat number 697703. The 6-His tag was used to allow purification of the recombinant protein on a column packed with nickel-nitrilotriacetic acid agarose purchased from Qiagen (cat no 30250).

Data set [4] in a line: Plasma protein binding by equilibrium dialysis. Type of data set: in vitro ADME. To be noted: rat, 18 hours at 37° C., plasma vs isotonic phosphate buffer pH 7.4, read-out: % free in plasma. How it is done: Measurements of Plasma Protein Binding of Compounds
The plasma protein binding of compounds was measured using the equilibrium dialysis technique (W. Lindner et al, J. Chromatography, 1996, 677, 1-28). Compound was dialysed at a concentration of 20 μM for 18 hours at 37° C. with plasma and isotonic phosphate buffer pH 7.4 (1 ml of each in the dialysis cell). A Spectrum® 20-cell equilibrium dialyser was used together with Teflon, semi-micro dialysis cells and Spectra/Por®2 membrane discs with a molecular weight cut off 12-14000 Dalton, 47 mm (supplied by PerBio Science UK Ltd, Tattenhall, Cheshire). Plasma and buffer samples are removed following dialysis and analysed using HPLCUV/MS (high performance liquid chromatography with UV and mass spec detection) to give the % free level in plasma.
Background: In equilibrium dialysis free small molecules cross a membrane that holds back macromolecules.

These results are taken from patent publication US20070255062A1, “Benzoyl Amino Pyridyl Carboxylic Acid Derivatives Useful as Glucokinase (Glk) Activators” (priority 2003, published 2007).

`COC[C@H](C)Oc1cc(Oc2cccc(C)c2)cc(C(=O)Nc2ccc(C(=O)O)cn2)c1` [Example 1, 6-[3-{(1S)-1-methyl-2-methoxy-ethoxy}-5-{3-methylphenoxy}phenylcarbonylamino]pyridine-3-carboxylic acid]: the half-life (as a rule, how long it takes for the measured level to halve) in data set [1] was 6.4 h. In data set [2], the “Peak Blood levels (including both bound and free)” value was found to be 2.06 µM. For the same compound, in data set [3], the half-maximal effective concentration (EC50) (in general, the concentration at which the effect is half-maximal) came out at 110 nM. Also, the fraction unbound at 18 h, 20 μM in data set [4] turned out to be 0.0076.
